From PMC7738880, “Identification of novel CD44v6-binding peptides that block CD44v6 and deliver a pro-apoptotic peptide to tumors to inhibit tumor growth and metastasis in mice” (Theranostics, 2021)
Residues, ends and D or L forms follow the SMILES beside them.

Tests used:
Panc-1 cells = assay: Saturation cell binding assay, Panc-1; design: species or system human; details: biotin-labeled peptide 0-256 µM, 4 °C, 1 h
Description: (§1) Supplementary Information
(§2) Supplementary Materials and Methods
(§3) Saturation binding assays to determine the cellular binding affinities of peptides Cells (5 × 10^3 cells per well in a 96-well plate) were incubated with 1% bovine serum albumin (BSA) for 30 min and with different concentrations of biotin-labeled peptides (0, 2, 4, 8, 16, 32, 64, 128, and 256 µM) at 4 °C for 1 h. After washing, the cells were incubated with horseradish peroxidase-conjugated neutravidin (1:10,000 dilution; ThermoFisher Scientific, Waltham, MA) for 30 min at room temperature. Enzymatic activity was detected using a 3,3ʹ,5,5ʹ-tetramethylbenzidine substrate (ThermoFisher Scientific), and the reaction was stopped using 2 M sulfuric acid. The absorbance at 450 nm was measured in each well using a microplate reader (Tecan, Mannedorf, Switzerland). The KD values were then calculated using GraphPad Prism 6 software (GraphPad Inc., La Jolla, CA). […]
(§4) 10 µM biotin-labeled CD44v6-binding peptides at 4 °C for 1 h. […]
(§5) Scientific) for 30 min at room temperature. […]

4T1-luc cells = assay: 4T1-luc orthotopic spontaneous metastasis model; format: in vivo; details: for tumor growth, lung metastasis, survival rate and TUNEL-stained apoptosis, peptide combined with crizotinib 12.5 mg/kg: peptide 14.2 mg/kg i.v. plus crizotinib 12.5 mg/kg oral, versus crizotinib alone 25 mg/kg; for primary tumor growth, lung metastasis and survival, peptide combined with crizotinib 25 mg/kg: peptide 14.2 mg/kg i.v. plus crizotinib 25 mg/kg oral, versus single treatment; for luminescence signals and total photon flux from the whole body: n = 6/group; for number of lung tumor nodules: relative to saline and control peptide; for hematologic parameters and liver and kidney functional marker levels: peptide alone or in combination with crizotinib, compared with control peptide, n = 3/group
Description: 4T1-luc cells (1 × 10^6 cells) were orthotopically inoculated into the mammary fat pads in 6-week-old female BALB/c mice. Panc-1 cells (1 × 10^6 cells) were subcutaneously inoculated into lower right flank in 6-week-old female BALB/c nude mice To monitor 4T1-luc tumor growth, mice were intraperitoneally injected with D-luciferin (150 mg/kg body weight), incubated for 10 min, and subjected to a whole-body bioluminescence imaging using the IVIS imaging system (Perkin Elmer). At two weeks after the inoculation, mice were randomly sorted into groups based on the luminescence intensity (4T1-luc) or tumor size (Panc-1). CD44v6-binding peptides were administered intravenously to 4T1 tumor-bearing mice (n = 6 per group) through the tail vein (14.2 mg/kg body weight, thrice weekly for three weeks) alone or in combination with crizotinib. Crizotinib in 5% DMSO was administered orally (12.5 and 25 mg/kg body weight, twice weekly for three weeks). CD44v6-targeted pro-apoptotic peptides or CD44v6-binding peptides and pro-apoptotic peptide in combination were intravenously administered to 4T1 or Panc-1 tumor-bearing mice (n = 10 per group) through the tail vein (10 mg/kg body weight, thrice weekly for 3 weeks). Primary tumor growth was monitored by measuring tumor volumes using a caliper and total photon flux in the whole body using the IVIS imaging system. The body weights and tumor ulceration were monitored throughout the treatment period. At the end of the treatments, half of the mice were used for the collection of blood, sacrificed, and the primary tumor weights and numbers of metastatic tumor nodules in the isolated lungs were determined. The remaining mice were maintained until death to determine the survival rates. The hematological parameters and liver and kidney function markers in plasma and serum samples were analyzed as described above. The normal ranges of hematological parameters of the BALB/c mouse and BALB/c nude mouse were obtained from Charles River Laboratories website (www.criver.com).

[1] = tested on: CD44v6-knockdown MDA-MB231 cells; assay: Peptide binding to CD44v6-knockdown cells (flow cytometry); format: cell-based, human; details: FITC-labeled peptide 25 µM, MDA-MB231, siRNA knockdown 24 h
Description: Cells (1 × 10^5 cells) were harvested and suspended in culture medium containing 1% BSA for 1 h, followed by an incubation with FITC-labeled peptides (25 µM) at 4 °C for 1 h. After washing, the cells were analyzed using a FACSCalibur flow cytometer (BD, Franklin Lakes, NJ). For competition assays, cells were incubated with 5 µg/mL of an anti-human CD44v6 mouse monoclonal antibody (clone no. VFF-18, 1:100 dilution; Abcam, Cambridge, MA) and anti-human CD44 monoclonal antibody (clone no. 156-3C11, 1:100 dilution; ThermoFisher Scientific) for 1 h to compete with peptide binding, followed by an incubation with FITC-labeled peptides (10 µM) before analysis on a flow cytometer (BD). In another set of assays, cells were incubated with peptides (50 µM) for 1 h to compete with antibody binding, followed by an incubation with 5 µg/mL of the anti-human CD44v6 mouse monoclonal antibody for 1 h, The cells were then incubated with an Alexa Fluor 488-labeled goat anti-mouse IgG secondary antibody (Merck) before analysis on a flow cytometer (BD).
CD44v6 gene expression was knocked down using CD44v6 small interfering RNAs (siRNAs) as previously described. Two CD44v6-specific siRNAs (v6-1: 5ʹ-AGU ACA ACG GAA ATT-3ʹ and v6-2: 5ʹ-GGA UAU CGC CAAACA CCC ATT-3ʹ) were synthesized by Bioneer (Daejeon, Korea). Control siRNA (5ʹ-CUA CGC CAA UUU CGU (dTdT)-3ʹ) were purchased from Bioneer. […]

MCF7 cells = assay: Saturation cell binding assay, MCF7; design: species or system human; details: biotin-labeled peptide 0-256 µM, 4 °C, 1 h, CD44v6-low cells
Description: as §1, §2, §3, §4, §5

[2] = biological target: T1, recombinant human CD44-Fc protein (Homo sapiens, UniProt P16070); assay: SPR analysis of peptide binding to CD44-Fc; details: biotin-conjugated peptide on streptavidin chip, CD44-Fc 0.125-2 µM
T1 construct: Fc; purchased R&D Systems
Description: The binding affinity (KD) of CD44v6-binding peptides to the CD44v6 protein was measured using an SPR instrument (Reichert Technologies, Depew, NY). A streptavidin chip was used as the immobilization substrate and exposed to biotin-labeled peptides (25 μΜ) at 5 μL/min for 50 min. The streptavidin only surface was used for the reference surface. All SPR signals were corrected by subtraction with the response of the reference surface. After washing, the chip was flowed with a solution of CD44v6-Fc or CD44-Fc protein (R&D Systems, Minneapolis, MN) in binding buffer (137 mM NaCl, 10 mM phosphate, 2.7 mM KCl pH 7.4, 62.5 µM BSA, and 0.005% Tween-20) at concentrations of 0.125, 0.25, 0.5, 1, and 2 μM at 10 μL/min for 3 min. Five concentrations (0.125, 0.25, 0.5, 1, and 2 µM) of CD44v6-Fc and CD44-Fc were used in a single-cycle dynamic SPR measurements. Resonance units were recorded and analyzed using Scrubber 2.0 software (BioLogic Software, Campbell, Australia). KD values were calculated by analyzing the steady-state binding data by fitting the curve of binding level against concentration with a 1:1 binding model (GraphPad Prism 7.0 software).

[3] = peptide 14.2 mg/kg i.v. thrice weekly for three weeks

T1 sequence (P16070 21-361 isoform P16070-12 limits assumed): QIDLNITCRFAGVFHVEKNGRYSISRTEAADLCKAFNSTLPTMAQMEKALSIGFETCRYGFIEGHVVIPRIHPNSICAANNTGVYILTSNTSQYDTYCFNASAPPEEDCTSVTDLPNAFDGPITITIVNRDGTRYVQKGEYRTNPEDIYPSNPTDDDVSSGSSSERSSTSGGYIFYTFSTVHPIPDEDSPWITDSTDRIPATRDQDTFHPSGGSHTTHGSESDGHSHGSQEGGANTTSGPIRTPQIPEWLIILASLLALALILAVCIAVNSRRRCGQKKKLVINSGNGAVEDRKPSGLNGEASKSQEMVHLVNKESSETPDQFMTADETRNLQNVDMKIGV

SMILES | Kd (Panc-1 cells) [µM] | tumor growth, lung metastasis, survival rate and TUNEL-stained apoptosis, peptide combined with crizotinib 12.5 mg/kg (4T1-luc cells) | primary tumor growth, lung metastasis and survival, peptide combined with crizotinib 25 mg/kg (4T1-luc cells) | body weight (4T1-luc cells; [3]) | monocyte population (4T1-luc cells; [3]) | survival rate (4T1-luc cells; [3]) | volumes of primary tumors (4T1-luc cells; [3]) | weights of isolated primary tumors (4T1-luc cells; [3]) | luminescence signals and total photon flux from the whole body (4T1-luc cells; [3]) | number of lung tumor nodules (4T1-luc cells; [3]) | hematologic parameters and liver and kidney functional marker levels (4T1-luc cells) | decrease of cellular binding to CD44v6-knockdown cells compared with wild-type cells [1] | Kd (MCF7 cells) [µM] | binding to the CD44 protein [2]
CC[C@H](C)[C@H](NC(=O)[C@@H](NC(=O)[C@H](CC(N)=O)NC(=O)[C@H](CC(C)C)NC(=O)[C@H](CC(N)=O)NC(=O)[C@@H](N)CS)[C@@H](C)O)C(=O)N[C@@H](CC(=O)O)C(=O)N[C@H](C(=O)N[C@@H](CS)C(=O)O)[C@@H](C)O [NLN] (H-CNLNTIDTC-OH; N-terminus and C-terminus assumed) | 8 ± 5 | more efficiently than crizotinib alone | more efficiently than a single treatment | little effect | decreased below the normal ranges | increased | decreased | decreased | decreased | reduced number | not significantly changed or remained within normal ranges | 6-7 fold | 300 ± 250 | did not bind
CC(C)C[C@H](NC(=O)[C@H](CCC(N)=O)NC(=O)[C@H](Cc1c[nH]c2ccccc12)NC(=O)[C@H](CCC(=O)O)NC(=O)[C@H](CC(N)=O)NC(=O)[C@@H](N)CS)C(=O)N[C@@H](CCCCN)C(=O)N[C@@H](CO)C(=O)N[C@@H](CS)C(=O)O [NEW] (H-CNEWQLKSC-OH; N-terminus and C-terminus assumed) | 7 ± 3 | more efficiently than crizotinib alone | more efficiently than a single treatment | little effect |  | increased | decreased | decreased | decreased | reduced number | not significantly changed or remained within normal ranges | 6-7 fold | 122 ± 115 | did not bind
